The target of assay [1] is T1, Asparagine synthetase [glutamine-hydrolyzing] (Rattus norvegicus) (UniProt P49088).
T1 sequence (whole entry): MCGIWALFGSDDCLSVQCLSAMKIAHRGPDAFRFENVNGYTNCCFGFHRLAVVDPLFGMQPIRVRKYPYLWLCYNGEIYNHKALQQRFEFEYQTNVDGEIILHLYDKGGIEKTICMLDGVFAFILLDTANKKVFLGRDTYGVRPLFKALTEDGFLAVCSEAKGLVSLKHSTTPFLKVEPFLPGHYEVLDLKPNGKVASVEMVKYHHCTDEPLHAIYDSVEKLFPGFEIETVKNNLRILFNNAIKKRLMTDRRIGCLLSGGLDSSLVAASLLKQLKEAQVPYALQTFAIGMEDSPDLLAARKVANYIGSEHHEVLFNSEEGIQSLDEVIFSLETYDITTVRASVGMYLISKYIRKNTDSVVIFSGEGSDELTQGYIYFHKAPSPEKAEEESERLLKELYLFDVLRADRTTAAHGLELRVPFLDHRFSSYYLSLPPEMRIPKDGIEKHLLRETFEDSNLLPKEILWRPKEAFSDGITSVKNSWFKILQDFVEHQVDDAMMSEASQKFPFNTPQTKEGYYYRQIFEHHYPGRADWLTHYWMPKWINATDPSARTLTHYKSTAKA
Nature of the assay: Inhibition of asparagine synthetase from partially purified rat Novikoff hepatoma at a final concentration of 1 mM with.

For assay [2], the system named is TsH1. Nature of the assay: Compound was evaluated for the growth inhibition of TsH1 cells in an enriched eagles minimal essential medium, medium lacking aspartic acid and asparagine at a concentration of 1.0 mg/mL (4.65 mM); Cells dead. Type of assay: functional, cell-based. The following applies: Cricetulus griseus.
Assay [3] deals with TsH1. In words: Compound was evaluated for the growth inhibition of TsH1 cells in an enriched eagles minimal essential medium, medium lacking aspartic acid at a concentration of 1.0 mg/mL (4.65 mM); Medium growth. Type of assay: functional, cell-based. The settings on record: Cricetulus griseus.
Assay [4] relates to TsH1. In words: Compound was evaluated for the growth inhibition of TsH1 cells in an enriched eagles minimal essential medium, medium lacking asparagine at a concentration of 0.01 mg/mL (0.04 mM); Heavy growth. The following applies: Cricetulus griseus. The format is functional, cell-based.
The test system of assay [5] is TsH1. In words: Compound was evaluated for the growth inhibition of TsH1 cells in an enriched eagles minimal essential medium, complete medium at a concentration of 1.0 mg/mL (4.65 mM); Medium growth. The following applies: Cricetulus griseus. The format is functional, cell-based.
In assay [6] the test system is TsH1. Nature of the assay: Compound was evaluated for the growth inhibition of TsH1 cells in an enriched eagles minimal essential medium, medium lacking asparagine at a concentration of 0.2 mg/mL (0.93 mM); Cells dead. The settings on record: Cricetulus griseus. Type of assay: functional, cell-based.
For assay [7], the system named is TsH1. In words: Compound was evaluated for the growth inhibition of TsH1 cells in an enriched eagles minimal essential medium, medium lacking aspartic acid and asparagine at a concentration of 0.01 mg/mL (0.04 mM); Heavy growth. The format is functional, cell-based. The settings on record: Cricetulus griseus.
The subject of assay [8] is TsH1. Nature of the assay: Compound was evaluated for the growth inhibition of TsH1 cells in an enriched eagles minimal essential medium, medium lacking asparagine at a concentration of 1.0 mg/mL (4.65 mM); Cells dead. The following applies: Cricetulus griseus. The format is functional, cell-based.
For assay [9], the system named is TsH1. Nature of the assay: Compound was evaluated for the growth inhibition of TsH1 cells in an enriched eagles minimal essential medium, medium lacking aspartic acid and asparagine at a concentration of 0.04 mg/mL (0.19 mM); Heavy growth. The following applies: Cricetulus griseus. The format is functional, cell-based.
The test system of assay [10] is TsH1. Nature of the assay: (§1) Compound was evaluated for the growth inhibition of TsH1 cells in an enriched eagles minimal essential medium, medium lacking asparagine at a concentration of 0.04 mg/mL (0.19 mM); Heavy growth. Type of assay: functional, cell-based. The following applies: Cricetulus griseus.
Assay [11] has as its system TsH1. Nature of the assay: Compound was evaluated for the growth inhibition of TsH1 cells in an enriched eagles minimal essential medium, medium lacking aspartic acid at a concentration of 0.01 mg/mL (0.04 mM); Heavy growth. Type of assay: functional, cell-based. The settings on record: Cricetulus griseus.
Assay [12] relates to TsH1. In words: Compound was evaluated for the growth inhibition of TsH1 cells in an enriched eagles minimal essential medium, complete medium at a concentration of 0.04 mg/mL (0.19 mM); Heavy growth. Type of assay: functional, cell-based. The settings on record: Cricetulus griseus.
Assay [13] deals with TsH1. The assay is described as §1. Type of assay: functional, cell-based. The settings on record: Cricetulus griseus. The source holds these as a separate data set.
In assay [14] the test system is TsH1. Nature of the assay: Compound was evaluated for the growth inhibition of TsH1 cells in an enriched eagles minimal essential medium, complete medium at a concentration of 0.01 mg/mL (0.04 mM); Heavy growth. The format is functional, cell-based. The settings on record: Cricetulus griseus.
The subject of assay [15] is TsH1. In words: Compound was evaluated for the growth inhibition of TsH1 cells in an enriched eagles minimal essential medium, medium lacking aspartic acid and asparagine at a concentration of 0.2 mg/mL (0.93 mM); Cells dead. Type of assay: functional, cell-based. The following applies: Cricetulus griseus.
Assay [16] has as its system TsH1. Nature of the assay: Compound was evaluated for the growth inhibition of TsH1 cells in an enriched eagles minimal essential medium, complete medium at a concentration of 0.2 mg/mL (0.93 mM); Heavy growth. The format is functional, cell-based. The settings on record: Cricetulus griseus.
The subject of assay [17] is TsH1. Nature of the assay: Compound was evaluated for the growth inhibition of TsH1 cells in an enriched eagles minimal essential medium, medium lacking aspartic acid at a concentration of 0.2 mg/mL (0.93 mM); Heavy growth. The settings on record: Cricetulus griseus. Type of assay: functional, cell-based.
The target of assay [18] is T1, Asparagine synthetase [glutamine-hydrolyzing] (Rattus norvegicus). In words: Inhibition of asparagine synthetase from partially purified rat Novikoff hepatoma at a final concentration of 2 mM.

This passage reports inhibition and Growth inhibition results from ChEMBL document CHEMBL1121869, “Potential inhibitors of L-asparagine biosynthesis. 5. Electrophilic amide analogues of (S)-2,3-diaminopropionic acid” (J Med Chem, 1981).

`NC(CNC(=O)C(Cl)Cl)C(=O)O` (stereo not drawn) registered an inhibition in assay [1] of 18.7%. In addition, the Growth inhibition result was “Not toxic” with TsH1 [2]; “Medium Growth” in the assay on TsH1 [3]; “Heavy Growth” in the assay on TsH1 [4]; “Medium Growth” in the assay with TsH1 [5]; “Not toxic” in the assay on TsH1 [6]; “Heavy Growth” in the assay on TsH1 [7]. For the same molecule, the Growth inhibition result in the assay on TsH1 [8] is “Not toxic”; in the assay with TsH1 [9] it was “Heavy Growth”; in the assay with TsH1 [10], “Heavy Growth”; in the assay with TsH1 [11], “Heavy Growth”; in the assay with TsH1 [12], “Heavy Growth”; with TsH1 [13] it was “Heavy Growth”. Further, the Growth inhibition entry with TsH1 [14] is “Heavy Growth”; in the assay on TsH1 [15], “Not toxic”; in the assay on TsH1 [16] it was “Heavy Growth”; in the assay with TsH1 [17], “Heavy Growth”.

In turn, `CC(=O)NCC(N)C(=O)O` (stereo not drawn) had an inhibition in [18] of 0%.

Broadly, the inhibition is how much of the control response was suppressed.
